# The source made the active and inactive calls. No cut-off for these calls is given here.
# Experiments:
# Enterococcus faecium [1] = assay: Antibacterial activity against vancomycin-resistant Enterococcus faecium harboring VanA phenotype incubated for 16 to 24 hrs by CLSI based broth microdilution method; assay type: functional; conditions: time 16-24 hrs
# Peptidoglycan [2] = assay: Potency index, ratio of vancomycin Ka to test compound Ka for Ac-Lys(D-isoAsp)-D-Ala-D-Ala lipid II model peptide moiety
# Staphylococcus aureus [3] = assay: Antibacterial activity against methicillin-resistant Staphylococcus aureus clinical isolate incubated for 16 to 24 hrs by CLSI based broth microdilution method; assay type: functional; conditions: time 16-24 hrs
# [4] = Clearance in CD-1 mouse at 10 mg/kg, iv measured for 24 hrs by UPLC analysis; assay type: ADME, organism-based; conditions: in vivo
# Peptidoglycan [5] = assay: Binding affinity to Ac-Lys(D-isoAsp)-D-Ala-D-Ala lipid II model peptide moiety assessed as change in Gibb's free energy by ITC analysis
# Enterococcus faecium [6] = assay: Antibacterial activity against vancomycin-resistant Enterococcus faecium harboring VanM phenotype incubated for 16 to 24 hrs by CLSI based broth microdilution method; assay type: functional; conditions: time 16-24 hrs
# Staphylococcus aureus [7] = assay: Potency index, ratio of Norvancomycin MIC to test compound MIC for vancomycin-intermediate Staphylococcus aureus incubated for 16 to 24 hrs by CLSI based broth microdilution method; assay type: functional; conditions: time 16-24 hrs
# Staphylococcus aureus [8] = assay: Potency index, ratio of Vancomycin MIC to test compound MIC for vancomycin-intermediate Staphylococcus aureus incubated for 16 to 24 hrs by CLSI based broth microdilution method; assay type: functional; conditions: time 16-24 hrs
# Staphylococcus aureus [9] = assay: Induction of membrane disruption in Staphylococcus aureus MRSA252 assessed as leakage of protoplasm content at 1 to 8 ug/ml incubated for 4 to 24 hrs by SEM analysis; assay type: functional, organism-based; conditions: dose 1-8 µg/ml, time 4-24 hrs
# Peptidoglycan [10] = assay: Potency index, ratio of vancomycin Ka to test compound Ka for Ac-Lys(Gly5)-D-Ala-D-Ala lipid II model peptide moiety
# [11] = Toxicity in BALB/c mouse infected with methicillin-resistant Staphylococcus aureus MRSA252 assessed as survival rate at 10 to 20 mg/kg, iv for 7 days; assay type: organism-based; conditions: in vivo, 168 h, dose 10-20 mg/kg, time 7 day
# Staphylococcus aureus [12] = assay: Antibacterial activity against Staphylococcus aureus Mu50 at 1:1 ratio of compound and phosphatidylglycerol at […] incubated for 16 to 24 hrs by absorbance based assay; assay type: functional, organism-based; conditions: dose 128.0 µg/ml, time 16-24 hrs
# Staphylococcus aureus [13] = assay: Bactericidal activity against methicillin-resistant Staphylococcus aureus MRSA252 assessed as reduction in bacterial count at 4 to 8 times MIC measured after 24 hrs by time kill assay; assay type: functional
# Peptidoglycan [14] = assay: Binding affinity to Ac-Lys(D-isoAsp)-D-Ala-D-Ala lipid II model peptide moiety assessed as association constant by ITC analysis
# Peptidoglycan [15] = assay: Potency index, ratio of vancomycin Ka to test compound Ka for Ac-Lys(D-isoAsp)-D-Ala-D-Ala lipid II model peptide moiety assessed as association constant by ITC analysis
# Escherichia coli [16] = assay: Potency index, ratio of Norvancomycin MIC to test compound MIC for Escherichia coli […] incubated for 16 to 24 hrs by CLSI based broth microdilution method; assay type: functional; conditions: time 16-24 hrs
# Escherichia coli [17] = assay: Bactericidal activity against Escherichia coli AB1157 assessed as reduction in bacterial count at 4 times MIC measured after 24 hrs by time kill assay; assay type: functional
# Enterococcus faecalis [18] = assay: Antibacterial activity against Enterococcus faecalis clinical isolate incubated for 16 to 24 hrs by CLSI based broth microdilution method; assay type: functional; conditions: time 16-24 hrs
# Escherichia coli [19] = assay: Bactericidal activity against Escherichia coli AB1157 assessed as reduction in bacterial count measured after 24 hrs by time kill assay; assay type: functional, organism-based
# Acinetobacter baumannii = assay: Antibacterial activity against Carbapenem-resistant Acinetobacter baumannii clinical isolate incubated for 16 to 24 hrs by CLSI based broth microdilution method; assay type: functional; conditions: time 16-24 hrs
# Enterococcus faecium [20] = assay: Antibacterial activity against vancomycin-resistant Enterococcus faecium harboring VanB phenotype incubated for 16 to 24 hrs by CLSI based broth microdilution method; assay type: functional; conditions: time 16-24 hrs
# Staphylococcus aureus [21] = assay: Post-antibiotic effect in Staphylococcus aureus MRSA252 assessed as decrease in bacterial titer at 20 times measured after 7 hrs; assay type: functional
# Staphylococcus aureus [22] = assay: Antibacterial activity against vancomycin-intermediate Staphylococcus aureus incubated for 16 to 24 hrs by CLSI based broth microdilution method; assay type: functional; conditions: time 16-24 hrs
# Staphylococcus aureus [23] = assay: Post-antibiotic effect in Staphylococcus aureus MRSA252 assessed as time of effect at 10 times; assay type: functional
# Enterococcus faecalis [24] = assay: Induction of inner membrane permeabilization in Enterococcus faecalis ATCC29212 measured for 20 mins by DiSC3(5) staining based analysis; assay type: functional, organism-based; conditions: dose 1-128 µg/ml
# Staphylococcus aureus [25] = assay: Antibacterial activity against methicillin-susceptible Staphylococcus aureus incubated for 16 to 24 hrs by CLSI based broth microdilution method; assay type: functional; conditions: time 16-24 hrs
# Enterococcus faecium [26] = assay: Potency index, ratio of Vancomycin MIC to test compound MIC for vancomycin-resistant Enterococcus faecium incubated for 16 to 24 hrs by CLSI based broth microdilution method; assay type: functional; conditions: time 16-24 hrs
structure (smiles),measurement,setting,value
CC(C)C[C@@H](N)C(=O)N[C@H]1C(=O)N[C@@H](CC(N)=O)C(=O)N[C@H]2C(=O)N[C@H]3C(=O)N[C@H](C(=O)N[C@H](C(=O)NCc4ccc(-c5ccc(CNC(=N)N)cc5)cc4)c4cc(O)cc(O)c4-c4cc3ccc4O)[C@H](O)c3ccc(c(Cl)c3)Oc3cc2cc(c3O[C@@H]2O[C@H](CO)[C@@H](O)[C@H](O)[C@H]2O[C@H]2C[C@](C)(N)[C@H](O)[C@H](C)O2)Oc2ccc(cc2Cl)[C@H]1O,MIC,Enterococcus faecium [1],4 µg/mL
same,Ratio,Peptidoglycan [2],2.7
same,MIC,Staphylococcus aureus [3],≤ 0.03 µg/mL
same,clearance,[4],4.2 mL/min/kg
same,deltaG,Peptidoglycan [5],-7.96 kcal/mol
same,MIC,Enterococcus faecium [6],4 µg/mL
same,Ratio,Staphylococcus aureus [7],2
same,Ratio,Staphylococcus aureus [8],2
same,Activity,Staphylococcus aureus [9],Active
same,Ratio,Peptidoglycan [10],1.7
same,Activity,[11],100%
same,Activity,Staphylococcus aureus [12],Active
same,Activity,Staphylococcus aureus [13],~1 log10CFU/ml
same,Ka,Peptidoglycan [14],687000 M⁻¹
same,Ratio,Peptidoglycan [15],17.3
same,Ratio,Escherichia coli [16],2
same,Activity,Escherichia coli [17],2 log10CFU/ml
same,MIC,Enterococcus faecalis [18],≤ 0.03 µg/mL
same,Activity,Escherichia coli [19],Dose-Dependent Effect
same,MIC,Acinetobacter baumannii,64 µg/mL
same,MIC,Enterococcus faecium [20],2 µg/mL
same,Activity,Staphylococcus aureus [21],1.2 log10CFU/ml
same,MIC,Staphylococcus aureus [22],1 µg/mL
same,Time,Staphylococcus aureus [23],6 h
same,Activity,Enterococcus faecalis [24],Dose-Dependent Effect
same,MIC,Staphylococcus aureus [25],≤ 0.063 µg/mL
same,Ratio,Enterococcus faecium [26],2

# Reference: ChEMBL document CHEMBL6127119 (J Med Chem, 2024)
